Test results reported in the supplement of paper PMC10307832.

Assays:
Experiment in all cases: relative viability (nuclei count vs DMSO), 5 days (fraction); higher = more cells survive
[1] = compound: Cc1ccc2nc(NCCN)c3ncc(C)n3c2c1 + Cc1cc(Nc2cc(N3CCN(C)CC3)nc(Sc3ccc(NC(=O)C4CC4)cc3)n2)n[nH]1 [Tozasertib] (partner 0.1 µM)
Summary of the method: (§1)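 Lung cancer cell lines, seeded in 1536-well plates, were treated the following day by pin tool with a single drug or with five library-drug doses (not always all listed) in √10 steps on top of a fixed anchor-drug dose. Cells were fixed and nuclei stained in one step after 5 days, and nuclei were counted. Relative viability is the nuclei count for treated wells divided by that for vehicle wells, reported as medians of duplicate plates.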

[2] = compound: Cc1ccc2nc(NCCN)c3ncc(C)n3c2c1 + COc1cccc2cc(-c3nc([C@H]4CC[C@H](C(=O)O)CC4)n4ncnc(N)c34)[nH]c12 [OSI-027] (partner 0.5 µM)
Summary of the method: as §1

[3] = compound: O=C(/C=C/c1ccccc1)NC(NC(=S)Nc1cccc2cccnc12)C(Cl)(Cl)Cl [Salubrinal] + N=C(N)NC(=N)NCCc1ccccc1 [Phenformin] (partner 250 µM)
Summary of the method: as §1

[4] = compound: Cc1ccc2nc(NCCN)c3ncc(C)n3c2c1 + Cc1nc(Nc2ncc(C(=O)Nc3c(C)cccc3Cl)s2)cc(N2CCN(CCO)CC2)n1 [Dasatinib] (partner 0.075 µM)
Summary of the method: as §1

UMC-11 was tested, and the relative viability ([1]; first compound 0.04 µM) was 0.211, the relative viability ([1]; first compound 0.1265 µM) was 0.233 and the relative viability ([1]; first compound 0.4 µM) was 0.209. It also gave a relative viability ([1]; first compound 1.265 µM) of 0.205, a relative viability ([1]; first compound 4 µM) of 0.194 and a relative viability ([2]; first compound 0.04 µM) of 0.51. For the same cell line, the relative viability ([2]; first compound 0.1265 µM) was 0.471, the relative viability ([2]; first compound 0.4 µM) was 0.481 and the relative viability ([2]; first compound 1.265 µM) was 0.416. It also gave a relative viability ([2]; first compound 4 µM) of 0.47, a relative viability ([3]; first compound 0.08 µM) of 0.354 and a relative viability ([3]; first compound 0.253 µM) of 0.354. It also gave a relative viability ([3]; first compound 0.8 µM) of 0.335, a relative viability ([3]; first compound 2.53 µM) of 0.332 and a relative viability ([3]; first compound 8 µM) of 0.299. The relative viability ([4]; first compound 0.04 µM) was 0.475, the relative viability ([4]; first compound 0.1265 µM) was 0.477 and the relative viability ([4]; first compound 0.4 µM) was 0.431. The relative viability ([4]; first compound 1.265 µM) was 0.407 and the relative viability ([4]; first compound 4 µM) was 0.387.
